In PMC9219689, “The Antioxidant Cyclic 3-Hydroxymelatonin Promotes the Growth and Flowering of Arabidopsis thaliana” (Antioxidants, 2022) one finds inhibition and Km data, which are given here for two molecules.

The target of data set [1] is T1, AtM3H (Arabidopsis thaliana melatonin 3-hydroxylase) (Arabidopsis thaliana, UniProt Q39224).
T1 construct: gene SRG1; full length, 358 residues; N-terminal hexahistidine tag (pET300), removal not mentioned; E. coli BL21(DE3), Ni-NTA purified
T1 sequence (Q39224 1-358): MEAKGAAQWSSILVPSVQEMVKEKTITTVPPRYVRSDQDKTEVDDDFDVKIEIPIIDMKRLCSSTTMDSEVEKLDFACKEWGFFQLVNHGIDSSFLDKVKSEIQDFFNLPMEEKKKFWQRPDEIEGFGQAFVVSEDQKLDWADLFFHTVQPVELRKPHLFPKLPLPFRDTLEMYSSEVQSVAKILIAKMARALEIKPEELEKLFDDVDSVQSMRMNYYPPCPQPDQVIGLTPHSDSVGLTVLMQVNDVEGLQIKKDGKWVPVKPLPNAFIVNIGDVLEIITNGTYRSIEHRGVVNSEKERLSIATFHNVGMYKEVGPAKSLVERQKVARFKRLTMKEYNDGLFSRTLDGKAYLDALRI
As to the kind of experiment: HPLC with fluorescence detection of 3-OHM; inhibition of M3H activity. It is filed as biochemical.

Substrate in the data set “purified protein”: COc1ccc2[nH]cc(CCNC(C)=O)c2c1
As to the kind of experiment: purified protein. The following applies: co-substrate α-ketoglutarate (160 µM in standard assay), FeSO4 100 µM, ascorbate 1 mM, catalase, optimum conditions (pH 7.3, 30 °C; Methods list Tris/HCl pH 8.0).

In general, inhibition refers to the change of the read-out against control, counted positive when it falls. High values mean a strong effect, low ones a weak effect. As to `CCC(=O)C1C(=O)CC(C(=O)O)CC1=O` (centres unmarked) [Prohexadione-Ca], the inhibition at 500 µM in data set [1] is 50%.

B1: AtM3H (Arabidopsis thaliana melatonin 3-hydroxylase) (Arabidopsis thaliana) (protein)
chain: T1 sequence (Q39224 1-358)
One may read the Km as the concentration of substrate that gives half-maximal velocity. Regarding B1, the Km in “purified protein” was 100 µM.
